This is an account of results in US10730868B2, “Bicyclic heteroaryl substituted compounds” (BRISTOL-MYERS SQUIBB COMPANY, priority 2016, dated 2020).

SMILES strings stand for the structures.

The first test deals with PAR4 (Homo sapiens (Human), UniProt Q96RI0). As to the kind of experiment: PAR4 FLIPR assay (antagonism of agonist-peptide-induced calcium mobilization). It is filed as cell-based. The note with it: H-Ala-Phe(4-F)-Pro-Gly-Trp-Leu-Val-Lys-Asn-Gly-NH2-induced intracellular calcium mobilization, PAR4-expressing HEK293 cells; read-out: PAR4 FLTPR assay (IC50). The text has this: The Fluorometric Imaging Plate Reader (FLIPR) assay is an exemplary in vitro assay for measuring the activity of the PAR4 antagonists of the present invention. In this assay, intracellular calcium mobilization is induced in PAR4 expressing cells by a PAR4 agonist and calcium mobilization is monitored.
PAR4, sequence (Q96RI0 18-385): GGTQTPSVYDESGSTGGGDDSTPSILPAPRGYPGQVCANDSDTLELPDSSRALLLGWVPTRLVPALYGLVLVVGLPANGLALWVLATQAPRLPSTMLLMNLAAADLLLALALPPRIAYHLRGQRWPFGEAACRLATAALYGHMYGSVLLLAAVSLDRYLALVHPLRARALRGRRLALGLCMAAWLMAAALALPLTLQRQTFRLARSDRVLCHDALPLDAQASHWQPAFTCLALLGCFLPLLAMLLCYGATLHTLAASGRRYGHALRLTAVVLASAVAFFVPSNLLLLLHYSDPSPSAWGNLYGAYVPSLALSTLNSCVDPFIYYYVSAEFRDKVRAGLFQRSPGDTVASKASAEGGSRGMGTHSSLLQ
HEK293 cells stably expressing PAR4 were generated by a standard method of transfection of human PAR4 (F2R23) cDNA expression vector and selected based on PAR4 protein expression or mRNA expression. […] These cells also express endogenous PAR1 and can elicit calcium signal upon stimulation with PAR1 agonist peptide. Therefore, the same cells were also used to determine selectivity against PAR1 and agonist activity for both receptors. Cells from HEK293 PAR4 Clone 1.2A (BMS Arctic ID 383940) were propagated and used for calcium mobilization studies.
FLIPR-based calcium mobilization assay in HEK293 cells was used to measure PAR4 antagonism agonism, and selectivity against PAR1. The activity of the PAR4 antagonists of the present invention were tested in PAR4 expressing cells by monitoring H-Ala-Phe(4-F)-[…]NH2-induced intracellular calcium mobilization. Counter screens for agonist activity and PAR1 antagonist activity were also performed. Briefly, PAR/PAR4-expressing HEK293 cells were grown in DMEM (Life Technology, Grand Island, N.Y.) containing 10% heat-inactivated FBS, 1% Penicillin-Streptomycin, 10 μg/mL blasticidin, and 100 μg/mL Zeocin at 37° C. with 5% CO2. Cells were plated overnight prior to the experiment in a black 384-well Purecoat Amine clear bottom plate (Becton Dickinson Biosciences, San Jose, Calif.) at 10,000 cells/well in 30 μL growth medium and incubated in a humidified chamber at 37° C. with 5% CO2 overnight. Prior to compound addition, the cell medium was replaced with 40 μL of 1× calcium and magnesium-containing Hank's Balanced Saline Solution (HBSS) (with 20 mM HEPES) and 1:1000 diluted fluorescent calcium indicator (Codex Biosolutions, Gaithersburg, Md.). After a 30 minute incubation period at 37° C. and a further 30 minute incubation and equilibration period at room temperature, 20 μL test compound (diluted in 1×HBSS buffer) was added at various concentrations at 0.17% dimethyl sulfoxide (DMSO) final concentration. Changes in fluorescence intensity were measured using a Functional Drug Screening System (FDSS, Hamamatsu, Japan) to determine agonist activities. The cells were then incubated for 30 minutes at room temperature followed by addition of 20 μL of agonist peptide for antagonist activity measurement. […] Compound potency was derived from 11-point concentration-response curves.
In general terms: Calcium flux is commonly read through the fluorescence of an indicator in the cells.
For the compound `COc1cnc2c(-c3nc4cc(F)c(O[C@@H]5CC[C@@H]5OC(=O)Nc5cnc(OC[C@@H](C)O)nc5)cc4s3)cc(C)cc2n1` (stereo in doubt) [Example 62, cis-2-((5-fluoro-2-(2-methoxy-7-methylquinoxalin-5-yl)benzo[d]thiazol-6-yl)oxy)cyclobutyl (2-((R)-2-hydroxypropoxy)pyrimidin-5-yl)carbamate (Homochiral)], the IC50 was 6.9 nM.

`COc1cnc2c(-c3nc4cc(F)c(O[C@@H]5CC[C@@H]5OC(=O)Nc5cnc(OCCO)nc5)cc4s3)cc(C)cc2c1` (stereo in doubt) [Example 74, cis-2-((5-fluoro-2-(3-methoxy-6-methylquinolin-8-yl)benzo[d]thiazol-6-yl)oxy)cyclo butyl (2-(2-hydroxyethoxy)pyrimidin-5-yl)carbamate (Homochiral)]: the IC50 is 8.9 nM.

For the compound `COc1cnc2c(-c3nc4cc(F)c(O[C@@H]5CC(F)(F)C[C@@H]5OC(=O)Nc5cnc(C)nc5)cc4s3)cc(C)cc2n1` (stereo in doubt) [Example 99, (cis)-4,4-difluoro-2-((5-fluoro-2-(2-methoxy-7-methylquinoxalin-5-yl)benzo[d]thiazol-6-yl)oxy)cyclopentyl (2-methylpyrimidin-5-yl)carbamate (Homochiral)], the IC50 stood at 32 nM.

Take `COc1cnc2c(-c3nc4cc(F)c(O[C@H]5CC(F)(F)CC[C@H]5OC(=O)Nc5cnc(OCCO)nc5)cc4s3)cc(C)cc2n1` [Example 1]: the IC50 turned out to be 1.6 nM.

The test is the same for the next values; noted with them: H-Ala-Phe(4-F)-[…]NH2-induced intracellular calcium mobilization, PAR4-expressing HEK293 cells; read-out: PAR4 FLTPR assay (IC50).
Regarding `COc1ccc(NC(=O)O[C@H]2CCOC[C@H]2Oc2cc3sc(-c4cc(C)cc5nc(OC)cnc45)nc3cc2F)cn1` (racemic) [Example 88, rac-cis-3-((5-fluoro-2-(2-methoxy-7-methylquinoxalin-5-yl)benzoldithiazol-6-yl)oxy)tetrahydro-2H-pyran-4-yl (6-methoxypyridin-3-yl)carbamate], the IC50 turned out to be 21 nM.

`COc1ccc(NC(=O)O[C@H]2CCOC[C@H]2Oc2cc3sc(-c4cc(C#N)cc5nc(OC)cnc45)nc3cc2F)cn1` (racemic) [Example 89, rac-cis-3-((2-(7-cyano-2-methoxyquinoxalin-5-yl)-5-fluorobenzo[d]thiazol-6-yl)oxy)tetrahydro-2H-pyran-4-yl (6-methoxypyridin-3-yl)carbamate]: the IC50 was found to be 3.8 nM.

For the compound `COc1cnc2c(-c3nc4cc(F)c(O[C@@H]5CN(C(=O)OCc6ccccc6)C[C@H]5O)cc4s3)cc(C)cc2n1` (racemic) [Example 90, rac-trans-benzyl 3-((5-fluoro-2-(2-methoxy-7-methylquinoxalin-5-yl)benzo[d]thiazol-6-yl)oxy)-4-hydr oxopyrrolidine-1-carboxylate], the IC50 is 330 nM.

Regarding `COc1cnc2c(-c3nc4cc(F)c(O[C@@H]5CN(C(=O)OC(C)(C)C)CC[C@@H]5OC(=O)Nc5cnc(C)nc5)cc4s3)cc(C)cc2n1` (racemic) [Example 91, rac-cis-tert-butyl 3-((5-fluoro-2-(2-methoxy-7-methylquinoxalin-5-yl)benzo[d]thiazol-6-yl)oxy)-4-(((2-methylpyrimidin-5-yl)carbamoyl)oxy)piperidine-1-carboxylate], the IC50 was found to be 3.8 nM.

With `COc1ccc(NC(=O)O[C@H]2CCN(C(=O)OC(C)(C)C)C[C@H]2Oc2cc3sc(-c4cc(C)cc5nc(OC)cnc45)nc3cc2F)cn1` (racemic) [Example 92, rac-cis-tert-butyl 3-((5-fluoro-2-(2-methoxy-7-methylquinoxalin-5-yl)benzo[d]thiazol-6-yl)oxy)-4-(((6-methoxypyridin-3-yl)carbamoyl)oxy)piperidine-1-carboxylate], the IC50 turned out to be 12 nM.

For `COc1cnc2c(-c3nc4cc(F)c(O[C@@H]5CN(C(C)=O)CC[C@@H]5OC(=O)Nc5cnc(C)nc5)cc4s3)cc(C)cc2n1` (racemic) [Example 94, rac-cis-1-acetyl-3-((5-fluoro-2-(2-methoxy-7-methylquinoxalin-5-yl)benzo[d]thiazol-6-yl)oxy)piperidin-4-yl (2-methylpyrimidin-5-yl)carbamate], the IC50 is 2300 nM.

Take `COc1cnc2c(-c3nc4cc(F)c(O[C@@H]5CN(S(C)(=O)=O)CC[C@@H]5OC(=O)Nc5cnc(C)nc5)cc4s3)cc(C)cc2n1` (racemic) [Example 95, rac-cis-3-((5-fluoro-2-(2-methoxy-7-methylquinoxalin-5-yl)benzo[d]thiazol-6-yl)oxy)-1-(methylsulfonyl)piperidin-4-yl (2-methylpyrimidin-5-yl)carbamate]: the IC50 came to 72 nM.

`COc1cnc2c(-c3nc4cc(F)c(O[C@@H]5CN(C(=O)C(F)(F)F)CC[C@@H]5OC(=O)Nc5cnc(C)nc5)cc4s3)cc(C)cc2n1` (racemic) [Example 96, rac-cis-3-((5-fluoro-2-(2-methoxy-7-methylquinoxalin-5-yl)benzo[d]thiazol-6-yl)oxy)-1-(2,2,2-trifluoroacetyl)piperidin-4-yl (2-methylpyrimidin-5-yl)carbamate]: the IC50 came to 44 nM.

Take `COc1cnc2c(-c3nc4cc(F)c(O[C@@H]5CC(F)(F)C[C@@H]5OC(=O)Nc5cnc(C)nc5)cc4s3)cc(C)cc2n1` (racemic) [Example 97, rac-cis-4,4-difluoro-2-((5-fluoro-2-(2-methoxy-7-methylquinoxalin-5-yl)benzo[d]thiazol-6-yl)oxy)cyclopentyl (2-methylpyrimidin-5-yl)carbamate)]: the IC50 was 9.2 nM.

In the case of `COc1cnc2c(-c3nc4cc(F)c(O[C@@H]5CC(F)(F)C[C@@H]5OC(=O)Nc5cnc(C)nc5)cc4s3)cc(Cl)cc2c1` (racemic) [Example 98, rac-cis-2-((2-(6-chloro-3-methoxyquinolin-8-yl)-5-fluorobenzo[d]thiazol-6-yl)oxy)-4,4-difluorocyclopentyl (2-methylpyrimidin-5-yl)carbamate], the IC50 was determined as 14 nM.

With `COc1cnc2c(-c3nc4cc(F)c(O[C@@H]5CCC(C)(C)[C@@H]5O)cc4s3)cc(C)cc2n1` (racemic) [Example 103, rac-cis-5-((5-fluoro-2-(2-methoxy-7-methyl)quinoxalin-5-yl)benzo[d]thiazol-6-yl)oxy)-2,2-dimethylcyclopentanol], the IC50 was determined as 20 nM.

Take `COc1cnc2c(-c3nc4cc(F)c(O[C@@H]5CCC(C)(C)[C@@H]5OC(=O)Nc5cnc(C)nc5)cc4s3)cc(C)cc2n1` (racemic) [Example 104, rac-cis-5-((5-fluoro-2-(2-methoxy-7-methylquinoxalin-5-yl)benzo[d]thiazol-6-yl)oxy)-2,2-dimethylcyclopentyl (2-methylpyrimidin-5-yl)carbamate]: the IC50 was found to be 2.4 nM.

Take `COc1cnc2c(-c3nc4cc(F)c(O[C@H]5CCCC[C@H]5OC(=O)Nc5cccnc5)cc4s3)cc(C)cc2n1` (single isomer, unassigned; enantiomer 1) [Example 58, cis-2-((5-fluoro-2-(2-methoxy-7-methylquinoxalin-5-yl)benzo[d]thiazol-6-yl)oxy)cyclohexyl pyridin-3-ylcarbamate (Enantiomer 1)]: the IC50 amounted to 1.4 nM.

Turning to `COc1cnc2c(-c3nc4cc(F)c(O[C@H]5CC(C)(C)C[C@H]5OC(=O)Nc5cnc(C)nc5)cc4s3)cc(C)cc2n1` (single isomer, unassigned; enantiomer 1) [Example 84, (cis)-2-((5-fluoro-2-(2-methoxy-7-methylquinoxalin-5-yl)benzo[d]thiazol-6-yl)oxy)-4,4-dimethylcyclopentyl (2-methylpyrimidin-5-yl)carbamate Enantiomer 1], the IC50 came out at 5.4 nM.

Consider `COc1cnc2c(-c3nc4cc(F)c(O[C@@H]5CCCC[C@@H]5OC(=O)Nc5cccnc5)cc4s3)cc(C)cc2n1` (single isomer, unassigned; enantiomer 2) [Example 59, cis-2-((5-fluoro-2-(2-methoxy-7-methylquinoxalin-5-yl)benzo[d]thiazol-6-yl)oxy)cyclohexyl pyridin-3-ylcarbamate (Enantiomer 2)], for which the IC50 came out at 77 nM.

As to `COc1cnc2c(-c3nc4cc(F)c(O[C@@H]5CC(C)(C)C[C@@H]5OC(=O)Nc5cnc(C)nc5)cc4s3)cc(C)cc2n1` (single isomer, unassigned; enantiomer 2) [Example 85, (cis)-2-((5-fluoro-2-(2-methoxy-7-methylquinoxalin-5-yl)benzo[d]thiazol-6-yl)oxy)-4,4-dimethylcyclopentyl (2-methylpyrimidin-5-yl)carbamate Enantiomer 2], the half-inhibitory concentration (IC50) was found to be 41 nM.

One may read the IC50 as the point on the concentration scale where inhibition reaches its midpoint.
